Assay results: article PMC9405973, “Altered Conformational Landscape upon Sensing Guanine Nucleotides in a Disease Mutant of Elongation Factor-like 1 (EFL1) GTPase” (Biomolecules, 2022)
pKd: −log10 of the molar value.

Target: T1, Efl1 R1086Q in complex with Sdo1 and 60S subunits (Saccharomyces cerevisiae, UniProt P53893, R1086Q)
T1 construct: made in house; host or cells: Efl1: Saccharomyces cerevisiae; Sdo1: Escherichia coli C41; 60S subunits purified from S. cerevisiae strain JD1370
T1 sequence (P53893 1-1110 R1086Q): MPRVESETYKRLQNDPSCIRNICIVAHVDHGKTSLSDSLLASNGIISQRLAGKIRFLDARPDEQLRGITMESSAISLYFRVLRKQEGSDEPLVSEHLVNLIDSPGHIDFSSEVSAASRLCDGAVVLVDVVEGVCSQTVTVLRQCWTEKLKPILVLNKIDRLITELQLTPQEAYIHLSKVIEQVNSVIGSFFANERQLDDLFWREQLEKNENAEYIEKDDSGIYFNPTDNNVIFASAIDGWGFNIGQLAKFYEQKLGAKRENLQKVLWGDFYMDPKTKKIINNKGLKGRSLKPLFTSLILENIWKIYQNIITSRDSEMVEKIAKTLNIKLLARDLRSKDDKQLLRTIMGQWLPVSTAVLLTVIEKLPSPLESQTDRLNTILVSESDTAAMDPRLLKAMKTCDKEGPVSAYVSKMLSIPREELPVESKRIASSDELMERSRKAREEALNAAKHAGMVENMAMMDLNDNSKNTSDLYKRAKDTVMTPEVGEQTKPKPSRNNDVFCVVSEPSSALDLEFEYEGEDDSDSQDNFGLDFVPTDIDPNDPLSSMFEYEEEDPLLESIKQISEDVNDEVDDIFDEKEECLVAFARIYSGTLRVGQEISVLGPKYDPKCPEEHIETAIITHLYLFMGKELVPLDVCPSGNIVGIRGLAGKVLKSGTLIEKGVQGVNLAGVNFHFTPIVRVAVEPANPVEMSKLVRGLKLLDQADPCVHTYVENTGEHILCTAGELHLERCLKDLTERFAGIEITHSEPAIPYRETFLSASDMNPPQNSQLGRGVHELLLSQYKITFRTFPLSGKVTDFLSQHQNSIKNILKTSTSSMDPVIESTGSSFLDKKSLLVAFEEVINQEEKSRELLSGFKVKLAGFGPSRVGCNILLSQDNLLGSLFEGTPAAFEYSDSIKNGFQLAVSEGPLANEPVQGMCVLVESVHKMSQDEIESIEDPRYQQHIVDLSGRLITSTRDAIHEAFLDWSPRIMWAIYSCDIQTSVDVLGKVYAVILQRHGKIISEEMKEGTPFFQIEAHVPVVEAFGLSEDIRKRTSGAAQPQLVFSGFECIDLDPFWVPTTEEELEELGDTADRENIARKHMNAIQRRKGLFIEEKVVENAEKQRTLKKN
T1 sequence (Q07953 1-250 partner): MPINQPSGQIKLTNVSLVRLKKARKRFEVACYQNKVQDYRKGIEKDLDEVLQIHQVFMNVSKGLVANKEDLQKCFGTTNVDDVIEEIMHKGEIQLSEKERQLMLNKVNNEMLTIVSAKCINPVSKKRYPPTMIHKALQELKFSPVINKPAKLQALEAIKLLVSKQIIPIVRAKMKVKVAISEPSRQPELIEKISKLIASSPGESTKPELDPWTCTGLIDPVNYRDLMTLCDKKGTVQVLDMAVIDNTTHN
Assay: Steady state fluorescence binding of mant-GTP to Efl1 R1086Q in complex with Sdo1 and 60S subunits
Conditions: 25 °C, one-binding-site model; read-out: dissociation constant (Kd)
Description: We measured the binding of different Efl1 constructs present in complex with Sdo1 and 60S subunits to the fluorescence GTP analogue, mant-GTP, by following the increase in the fluorescence signal after excitation at 355 nm. Fluorescence intensities were plotted as a function of increasing nucleotide concentrations, and the dissociation constant (Kd) was calculated by fitting the data to a one-binding-site model (Supplementary Figure S1B).
Hydrolysis of GTP was measured using the Enzchek Phosphate Assay kit (Molecular Probes) as described by Webb. Standard reactions consisted of 100 µL containing 6 µM of Efl1 R1086Q and Efl1 L910K, 0.3 mM MESG, 1.0 U purine nucleoside phosphorylase (PNP) and the indicated amounts of GTP. […]
Reactions were initiated and the GTPase was added after 3 min. Time courses were followed by recording the change in absorbance at 360 nm in a Cary 60 UV -Vis spectrophotometer (Agilent Technologies). Background absorbance was recorded prior to the addition of the GTPase and subtracted from the sample signals. The slope of the measured time courses corresponded to the GTP hydrolysis rate. […] Data were analysed by nonlinear regression to the M ichaelis-Menten equation with the program Origin Version 5.0 (OriginLab, Co., Northampton, MA). […]
Steady state fluorescence measurements […]
Maximum emission at 440 nm was replotted as a function of nucleotide concentration and analysed

With CNc1ccccc1C(=O)O[C@H]1[C@@H](O)[C@H](n2cnc3c(=O)[nH]c(N)nc32)O[C@@H]1COP(=O)(O)OP(=O)(O)OP(=O)(O)O [mant-GTP] the pKd was 4.49.
